{
  "source": "ChEMBL document CHEMBL3421569",
  "about": "“Stemistry: the control of stem cells in situ using chemistry” (2015)",
  "key": {"[1]": {"test": "Induction of human ESC differentiation assessed as appearance of pigmented area measured over 8 weeks relative to control", "format": "functional, Embryonic stem cell"}, "[2]": {"test": "Induction of human ESC differentiation assessed as increase in microphthalmia-associated transcription factor expression measured over 8 weeks relative to total pigmented area", "format": "functional, Embryonic stem cell"}},
  "data": [
    {"compound": "NC(=O)c1cccnc1", "note": "[NIACINAMIDE]", "values": [
      {"measurement": "Activity", "setting": "[1]", "value": ">70", "unit": "%"},
      {"measurement": "Activity", "setting": "[2]", "value": 5, "unit": "%"}
    ]}
  ]
}
